Entries after “also recorded” stand apart in the source; their conditions may differ.
Key:
[1] = molecular target: T1, Nav1.2 voltage gated sodium channels (Homo sapiens, UniProt Q99250); test: Two electrode voltage clamp electrophysiology of voltage gated sodium channels expressed in Xenopus oocytes; format: cell-based; details: 0.3 mM in superfusate for two minutes then washed out; holding potential -50 mV; Nav1.2 in Xenopus oocytes
T1 construct: expressed in transfected cells; host or cells: Xenopus oocytes
Procedure: Nav1.2 voltage gated sodium channels were expressed in Xenopus oocytes and standard two electrode voltage clamp techniques were used to measure ionic currents through the channels after depolarizations from a holding potential of −50 mV. The test drugs, all at a concentration of 0.3 mM, were added to the superfusate for two minutes as indicated by the black bars and then washed out. […] Data are expressed as means±standard error of the mean and n equals the number of cells used in FIG. 4 (a)-(d).

mice [2] = test: Hot plate paw withdrawal latency after injection into a hind limb near the sciatic nerve; format: in vivo; details: 50 microliters of 10 mM injected into hind limb near sciatic nerve, 55° C. hot plate, about 30 min
Procedure: The test drugs, all at a volume of 50 microliters and a concentration of 10 mM, were injected into a hind limb near the sciatic nerve. The time it takes for the animals to withdraw the foot of the injected limb from touching a 55° C. hot plate is measured in seconds. This time is termed the paw withdrawal latency and is measured over about a 30 min time period. Data are expressed as means±standard error of the mean and n equals the number of animals used in FIG. 5(a)-(d).

mice [3] = test: Motor deficit testing, inverted screen test after injection; details: sensory block (hot plate) versus motor block (inverted screen test)
Procedure: Motor function was tested by observing the ability of the mice to walk hanging upside down from a screen, termed the inverted screen test.

T1 sequence (Q99250 whole entry): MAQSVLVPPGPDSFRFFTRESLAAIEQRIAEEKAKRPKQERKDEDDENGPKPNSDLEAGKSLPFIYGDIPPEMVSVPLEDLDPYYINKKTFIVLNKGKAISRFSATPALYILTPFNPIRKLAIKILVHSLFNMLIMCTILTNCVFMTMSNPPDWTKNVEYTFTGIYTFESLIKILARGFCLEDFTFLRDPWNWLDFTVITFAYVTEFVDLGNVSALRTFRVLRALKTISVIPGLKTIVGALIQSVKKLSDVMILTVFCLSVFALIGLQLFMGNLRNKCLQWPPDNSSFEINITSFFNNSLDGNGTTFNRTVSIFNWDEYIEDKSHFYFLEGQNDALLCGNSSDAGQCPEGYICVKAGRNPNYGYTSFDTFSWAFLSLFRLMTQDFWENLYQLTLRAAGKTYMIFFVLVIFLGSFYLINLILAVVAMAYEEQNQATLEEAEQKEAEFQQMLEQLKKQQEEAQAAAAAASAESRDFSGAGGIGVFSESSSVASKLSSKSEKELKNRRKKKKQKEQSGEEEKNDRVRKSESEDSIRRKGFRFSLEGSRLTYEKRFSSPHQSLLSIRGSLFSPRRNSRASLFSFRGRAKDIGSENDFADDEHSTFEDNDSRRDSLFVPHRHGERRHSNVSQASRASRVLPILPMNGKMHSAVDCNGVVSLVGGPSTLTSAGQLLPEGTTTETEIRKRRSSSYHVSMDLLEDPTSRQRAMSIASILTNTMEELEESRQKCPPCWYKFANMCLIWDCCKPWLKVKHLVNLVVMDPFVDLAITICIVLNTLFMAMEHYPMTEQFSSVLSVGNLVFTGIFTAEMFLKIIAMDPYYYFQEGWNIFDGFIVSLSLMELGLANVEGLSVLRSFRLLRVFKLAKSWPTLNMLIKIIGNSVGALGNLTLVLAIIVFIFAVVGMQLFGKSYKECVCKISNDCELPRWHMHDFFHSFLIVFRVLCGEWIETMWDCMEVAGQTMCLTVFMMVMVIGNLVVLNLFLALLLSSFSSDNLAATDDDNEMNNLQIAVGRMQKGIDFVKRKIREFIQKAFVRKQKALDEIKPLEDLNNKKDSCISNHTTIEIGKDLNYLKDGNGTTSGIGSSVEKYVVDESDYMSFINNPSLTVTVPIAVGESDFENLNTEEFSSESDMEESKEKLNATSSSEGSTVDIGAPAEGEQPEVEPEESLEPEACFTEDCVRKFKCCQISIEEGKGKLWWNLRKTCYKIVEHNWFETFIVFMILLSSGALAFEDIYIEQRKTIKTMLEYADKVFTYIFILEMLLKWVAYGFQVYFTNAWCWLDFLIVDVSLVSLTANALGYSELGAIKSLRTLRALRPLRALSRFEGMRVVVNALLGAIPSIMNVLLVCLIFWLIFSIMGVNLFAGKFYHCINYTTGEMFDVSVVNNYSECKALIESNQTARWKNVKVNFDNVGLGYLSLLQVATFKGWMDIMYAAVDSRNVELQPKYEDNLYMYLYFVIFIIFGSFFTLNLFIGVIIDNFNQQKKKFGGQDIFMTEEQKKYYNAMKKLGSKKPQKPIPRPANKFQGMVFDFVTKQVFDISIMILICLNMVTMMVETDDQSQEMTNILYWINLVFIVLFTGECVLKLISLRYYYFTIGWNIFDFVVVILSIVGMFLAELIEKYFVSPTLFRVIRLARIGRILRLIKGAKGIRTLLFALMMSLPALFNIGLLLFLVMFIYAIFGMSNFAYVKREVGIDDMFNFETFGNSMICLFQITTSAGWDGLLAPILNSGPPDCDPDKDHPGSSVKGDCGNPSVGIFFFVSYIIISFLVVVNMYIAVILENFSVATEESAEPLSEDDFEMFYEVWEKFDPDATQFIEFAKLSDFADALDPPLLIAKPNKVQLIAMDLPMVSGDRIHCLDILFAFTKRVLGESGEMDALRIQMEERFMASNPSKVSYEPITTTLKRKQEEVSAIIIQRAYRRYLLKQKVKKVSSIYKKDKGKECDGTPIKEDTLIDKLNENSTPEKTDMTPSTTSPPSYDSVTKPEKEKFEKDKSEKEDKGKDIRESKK

| Molecule | block of voltage gated sodium channels (ionic currents) [1] | analgesia / sensory block (paw withdrawal latency) (mice [2]) | selectivity of block of sensory nerves over motor nerves (mice [3]) |
| --- | --- | --- | --- |
| 2-Diethylaminoacetamido-1,12-closo-carborane [p-carborane lidocaine] | block voltage gated sodium channels in a reversible manner | provide analgesia | selectively blocked sensory nerves over motor nerves; also recorded: selective block of sensory nerves over motor nerves |
| 9-Diethylaminoacetamido-1,7-closo-carborane [m-carborane lidocaine] | block voltage gated sodium channels in a reversible manner | did not provide analgesia; also recorded: neither motor nor sensory block |  |
| CCN(CC)CC(=O)Nc1c(C)cccc1C [lidocaine, reference compound] | block voltage gated sodium channels in a reversible manner | provide analgesia |  |
| 3-Diethylaminoacetamido-1,2-closo-carborane [o-carborane lidocaine] | block voltage gated sodium channels in a reversible manner | provide analgesia | selectively blocked sensory nerves over motor nerves; also recorded: selective block of sensory nerves over motor nerves |

— patent US10202406B2, “Boron cluster compounds and uses thereof” (priority 2011, dated 2019)
